Assay results from US20170348331A1, “METHODS AND COMPOSITIONS FOR […] LEVELS” (Children's Hospital & Research Center at Oakland, priority 2013, published 2017).

Tests used:
[1] = test system: TPH1; assay: TPH1 expression in placental tissue homogenate of a pregnant person by ELISA; format: in vivo, human; conditions: pregnant person with elevated TPH1, about 1,000 IU per 11.3 kg per day, after 4 weeks
Experimental: TPH1 expression levels are determined from placental tissue homogenate obtained from a pregnant person by ELISA analysis. […] This means that the parent has increased risk of having child with autistic spectrum disorder. Vitamin D is then administered to the pregnant person at about 1,000 IU per 11.3 kg per day. After 4 weeks of the vitamin D treatment, TPH1 expression levels are assayed in placental tissue homogenate by ELISA analysis again. […] This implies the risk of having autistic child is reduced.

[2] = test system: TPH1; assay: TPH1 expression in peripheral blood cells of a pregnant mother by ELISA; format: in vivo, human; conditions: pregnant mother with elevated TPH1, ~1,000 IU per 11.3 kg per day, after 4 weeks
Experimental: TPH1 expression levels are determined from peripheral blood cells by ELISA analysis from a pregnant mother. […] This means that the mother has increased risk of having autistic child. Vitamin D is then be administered ˜1,000 IU per 11.3 kg per day. After 4 weeks of the vitamin D treatment, TPH1 expression levels are assayed in peripheral blood by ELISA analysis again. […] The vitamin D treatment will continue through pregnancy and breastfeeding. This implies the risk of having autistic child is reduced.

[3] = test system: melatonin production; conditions: increasing doses of vitamin D supplementation; cited from earlier work
[4] = test system: regulatory T cells (Tregs); conditions: vitamin D supplementation; cited from earlier work

Vitamin D
TPH1 expression level in placental tissue homogenate [1]: decreased to normal range | TPH1 expression level in peripheral blood [2]: decreased to normal range | melatonin production [3]: dose-dependent decrease | Tregs in peripheral blood [4]: significantly increase Tregs
